Experimental data published in the supplement of paper PMC13207355.

Columns and labels:
Conditions in all cases: exposure time: 72 h
E57 [1] = patient-derived glioblastoma stem cells of mesenchymal subtype; test: surviving fraction (nuclei count normalised to DMSO); higher = more cells surviving (less toxic)
FT3469 [2] = normal neural stem cell line; test: as above
E34 [3] = patient-derived glioblastoma stem cells of proneural subtype; test: as above
E28 [4] = patient-derived glioblastoma stem cells of classical subtype; test: as above
E13 [5] = patient-derived glioblastoma stem cells of classical subtype; test: as above
E21 [6] = patient-derived glioblastoma stem cells of mesenchymal subtype; test: as above
E31 [7] = patient-derived glioblastoma stem cells of proneural subtype; test: as above
E57 [8] = test: phenotypic distance (Euclidean, principal components) from DMSO controls (arbitrary units); higher = stronger morphological change
FT3469 [9] = test: as above
E34 [10] = test: as above
E28 [11] = test: as above
E13 [12] = test: as above
E21 [13] = test: as above
E31 [14] = test: as above
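For phenotypic distance (Euclidean, principal components) from DMSO controls in this document: cell Painting imaging in 384-well plates, CellProfiler features reduced to at least 20 principal components, Euclidean distance versus same-plate DMSO vehicle wells (0.1% v/v), median over six images per well.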
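For surviving fraction (nuclei count normalised to DMSO) in this document: nuclei counted by high-content imaging of Hoechst-stained cells in laminin-coated 384-well plates, relative to 0.1% DMSO vehicle wells, with staurosporine as cell-death control.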

Nc1ccn([C@H]2CC[C@@H](CO)O2)c(=O)n1 [Zalcitabine]
Conditions	phenotypic distance	surviving fraction
E13 [5], 4.1 nM	–	0.88
E13 [5], 12.3 nM	–	1.02
E13 [5], 37 nM	–	1.01
E13 [5], 111.1 nM	–	0.953
E13 [5], 333.3 nM	–	0.94
E13 [5], 1000 nM	–	1.01
E13 [5], 3000 nM	–	0.913
E13 [12], 4.1 nM	0.723	–
E13 [12], 12.3 nM	0.719	–
E13 [12], 37 nM	0.578	–
E13 [12], 111.1 nM	0.722	–
E13 [12], 333.3 nM	0.483	–
E13 [12], 1000 nM	0.498	–
E13 [12], 3000 nM	0.729	–
E21 [6], 4.1 nM	–	0.917
E21 [6], 12.3 nM	–	0.894
E21 [6], 37 nM	–	1.08
E21 [6], 111.1 nM	–	0.99
E21 [6], 333.3 nM	–	0.9
E21 [6], 1000 nM	–	0.987
E21 [6], 3000 nM	–	0.979
E21 [13], 4.1 nM	0.578	–
E21 [13], 12.3 nM	0.976	–
E21 [13], 37 nM	0.36	–
E21 [13], 111.1 nM	0.783	–
E21 [13], 333.3 nM	0.577	–
E21 [13], 1000 nM	0.331	–
E21 [13], 3000 nM	0.684	–
E28 [4], 4.1 nM	–	1.04
E28 [4], 12.3 nM	–	1.04
E28 [4], 37 nM	–	0.97
E28 [4], 111.1 nM	–	1.13
E28 [4], 333.3 nM	–	1.01
E28 [4], 1000 nM	–	1.12
E28 [4], 3000 nM	–	0.87
E28 [11], 4.1 nM	0.369	–
E28 [11], 12.3 nM	0.351	–
E28 [11], 37 nM	0.756	–
E28 [11], 111.1 nM	0.552	–
E28 [11], 333.3 nM	0.598	–
E28 [11], 1000 nM	0.381	–
E28 [11], 3000 nM	0.783	–
E31 [7], 4.1 nM	–	0.933
E31 [7], 12.3 nM	–	1.11
E31 [7], 37 nM	–	0.978
E31 [7], 111.1 nM	–	1.13
E31 [7], 333.3 nM	–	0.919
E31 [7], 1000 nM	–	0.885
E31 [7], 3000 nM	–	0.972
E31 [14], 4.1 nM	0.62	–
E31 [14], 12.3 nM	0.852	–
E31 [14], 37 nM	0.398	–
E31 [14], 111.1 nM	0.47	–
E31 [14], 333.3 nM	0.46	–
E31 [14], 1000 nM	0.667	–
E31 [14], 3000 nM	0.528	–
E34 [3], 4.1 nM	–	0.869
E34 [3], 12.3 nM	–	0.954
E34 [3], 37 nM	–	1.05
E34 [3], 111.1 nM	–	0.887
E34 [3], 333.3 nM	–	0.896
E34 [3], 1000 nM	–	0.977
E34 [3], 3000 nM	–	0.802
E34 [10], 4.1 nM	0.915	–
E34 [10], 12.3 nM	0.593	–
E34 [10], 37 nM	0.379	–
E34 [10], 111.1 nM	0.902	–
E34 [10], 333.3 nM	1.02	–
E34 [10], 1000 nM	0.999	–
E34 [10], 3000 nM	0.863	–
E57 [1], 4.1 nM	–	1.06
E57 [1], 12.3 nM	–	0.945
E57 [1], 37 nM	–	0.991
E57 [1], 111.1 nM	–	1.09
E57 [1], 333.3 nM	–	0.982
E57 [1], 1000 nM	–	1.02
E57 [1], 3000 nM	–	1.05
E57 [8], 4.1 nM	1.83	–
E57 [8], 12.3 nM	0.448	–
E57 [8], 37 nM	0.547	–
E57 [8], 111.1 nM	0.703	–
E57 [8], 333.3 nM	0.624	–
E57 [8], 1000 nM	0.55	–
E57 [8], 3000 nM	0.703	–
FT3469 [2], 4.1 nM	–	1.11
FT3469 [2], 12.3 nM	–	1.03
FT3469 [2], 37 nM	–	0.953
FT3469 [2], 111.1 nM	–	1.1
FT3469 [2], 333.3 nM	–	1.02
FT3469 [2], 1000 nM	–	1.11
FT3469 [2], 3000 nM	–	0.989
FT3469 [9], 4.1 nM	3.61	–
FT3469 [9], 12.3 nM	0.392	–
FT3469 [9], 37 nM	0.547	–
FT3469 [9], 111.1 nM	0.849	–
FT3469 [9], 333.3 nM	0.603	–
FT3469 [9], 1000 nM	0.632	–
FT3469 [9], 3000 nM	0.569	–

CCC(C)n1ncn(-c2ccc(N3CCN(c4ccc(OCC5COC(Cn6cncn6)(c6ccc(Cl)cc6Cl)O5)cc4)CC3)cc2)c1=O (stereo unspecified) [Itraconazole]
Conditions	phenotypic distance	surviving fraction
E13 [5], 4.1 nM	–	0.869
E13 [5], 12.3 nM	–	1.07
E13 [5], 37 nM	–	0.889
E13 [5], 111.1 nM	–	1.02
E13 [5], 333.3 nM	–	0.966
E13 [5], 1000 nM	–	0.801
E13 [5], 3000 nM	–	0.653
E13 [12], 4.1 nM	0.693	–
E13 [12], 12.3 nM	0.503	–
E13 [12], 37 nM	1.03	–
E13 [12], 111.1 nM	0.709	–
E13 [12], 333.3 nM	0.981	–
E13 [12], 1000 nM	2.73	–
E13 [12], 3000 nM	4.62	–
E21 [6], 4.1 nM	–	1.03
E21 [6], 12.3 nM	–	1.02
E21 [6], 37 nM	–	1.01
E21 [6], 111.1 nM	–	0.979
E21 [6], 333.3 nM	–	1.05
E21 [6], 1000 nM	–	0.79
E21 [6], 3000 nM	–	0.532
E21 [13], 4.1 nM	0.987	–
E21 [13], 12.3 nM	0.508	–
E21 [13], 37 nM	0.932	–
E21 [13], 111.1 nM	0.917	–
E21 [13], 333.3 nM	0.975	–
E21 [13], 1000 nM	3.76	–
E21 [13], 3000 nM	7.08	–
E28 [4], 4.1 nM	–	1.1
E28 [4], 12.3 nM	–	1.07
E28 [4], 37 nM	–	1.18
E28 [4], 111.1 nM	–	0.888
E28 [4], 333.3 nM	–	1.07
E28 [4], 1000 nM	–	0.897
E28 [4], 3000 nM	–	0.735
E28 [11], 4.1 nM	0.725	–
E28 [11], 12.3 nM	0.689	–
E28 [11], 37 nM	0.685	–
E28 [11], 111.1 nM	0.54	–
E28 [11], 333.3 nM	0.778	–
E28 [11], 1000 nM	1.01	–
E28 [11], 3000 nM	1.89	–
E31 [7], 4.1 nM	–	1.13
E31 [7], 12.3 nM	–	1.12
E31 [7], 37 nM	–	1.1
E31 [7], 111.1 nM	–	1.03
E31 [7], 333.3 nM	–	1.08
E31 [7], 1000 nM	–	1.09
E31 [7], 3000 nM	–	0.996
E31 [14], 4.1 nM	0.564	–
E31 [14], 12.3 nM	0.769	–
E31 [14], 37 nM	0.273	–
E31 [14], 111.1 nM	0.748	–
E31 [14], 333.3 nM	0.758	–
E31 [14], 1000 nM	1.32	–
E31 [14], 3000 nM	5	–
E34 [3], 4.1 nM	–	0.814
E34 [3], 12.3 nM	–	0.933
E34 [3], 37 nM	–	0.922
E34 [3], 111.1 nM	–	1.02
E34 [3], 333.3 nM	–	1.04
E34 [3], 1000 nM	–	0.831
E34 [3], 3000 nM	–	0.701
E34 [10], 4.1 nM	0.775	–
E34 [10], 12.3 nM	0.644	–
E34 [10], 37 nM	0.488	–
E34 [10], 111.1 nM	0.692	–
E34 [10], 333.3 nM	0.901	–
E34 [10], 1000 nM	1.17	–
E34 [10], 3000 nM	4	–
E57 [1], 4.1 nM	–	1.05
E57 [1], 12.3 nM	–	1.03
E57 [1], 37 nM	–	1.02
E57 [1], 111.1 nM	–	1.08
E57 [1], 333.3 nM	–	1.07
E57 [1], 1000 nM	–	0.999
E57 [1], 3000 nM	–	0.558
E57 [8], 4.1 nM	0.542	–
E57 [8], 12.3 nM	0.297	–
E57 [8], 37 nM	0.803	–
E57 [8], 111.1 nM	0.874	–
E57 [8], 333.3 nM	0.482	–
E57 [8], 1000 nM	2.51	–
E57 [8], 3000 nM	6.42	–
FT3469 [2], 4.1 nM	–	0.763
FT3469 [2], 12.3 nM	–	1.05
FT3469 [2], 37 nM	–	1.03
FT3469 [2], 111.1 nM	–	1.06
FT3469 [2], 333.3 nM	–	0.993
FT3469 [2], 1000 nM	–	0.895
FT3469 [2], 3000 nM	–	0.53
FT3469 [9], 4.1 nM	0.966	–
FT3469 [9], 12.3 nM	0.554	–
FT3469 [9], 37 nM	1.33	–
FT3469 [9], 111.1 nM	3.66	–
FT3469 [9], 333.3 nM	0.753	–
FT3469 [9], 1000 nM	1.14	–
FT3469 [9], 3000 nM	3.43	–
